In US5726156A, “Cytokine regulatory agents and methods of use in pathologies and conditions associated with altered cytokine levels” (Trega Biosciences, Inc., priority 1995, dated 1998):

What was measured:
[1] = test system: Zucker NIDDM diabetes; assay: Heritable diabetes, Zucker NIDDM rats; type: in vivo; details: 25 μg/kg every 8 hr for approximately three months
Protocol: Male Zucker rats are a well established rat model for heritable non-insulin dependent diabetes mellitus (NIDDM), as described, for example, by Ward et al., Ann. Clin. Lab. Sci., 24:266-277, (1994), which is incorporated herein by reference. Eighteen male Zucker rats were used to study the effects of EX-2 on NIDDM, a chronic disease. The rats were placed into two groups and received either saline or 25 μg/kg EX-2 every 8 hr for approximately three months. Blood samples were collected by tail clip and urine samples were collected by placing animals in metabolic cages fro 24 hr. Plasma insulin was assayed using an RIA kit (Amersham Life Sciences, Arlington Heights, Ill.). Urine protein was assayed for using a commercial protein assay kit (Coomassie Plus, Pierce, Rockford, Ill.). Body weighed measurements were made with a Mettler Toledo top loader balance.

[2] = test system: IL-10; assay: Increasing levels of IL-10 in human plasma; type: in vivo; details: for increase of plasma IL-10: healthy male volunteers
Protocol: EX-2 was administered by intravenous infusion to eight healthy male volunteers in doses of either 200 or 500 ug/kg. Plasma IL-10 levels increased in two of four volunteers after administration at 200 ug/kg EX-2 (FIG. 3a) and in four of four volunteers after administration of 500 ug/kg EX-2 (FIG. 3b).

[3] = test system: STZ diabetes, blood glucose; assay: Streptozotocin-induced diabetes; type: in vivo, rats; details: 150 μg/kg every 8 hr for 72 hr; STZ 65 mg/kg iv
Protocol: Male Sprague-Dawley rats were given 65 mg/kg of streptozotocin (STZ) intravenously through the tall vein. Rats were divided into two groups. The first group was administered EX-2, 150 μg/kg every 8 hr for 72 hr and the second group was a control. Blood samples were withdrawn under ether anesthesia every 8 hr for the first 72 hr, then every 12 hr or 24 hr until the end of the observation period. Plasma samples were assayed for glucose using a glucose assay kit (Trinder, Sigma Chemical Co.). As shown in Table VI below EX-2 effect a 72% reduction in blood glucose levels.

[4] = test system: LPS-induced fever; assay: LPS-induced temperature increase (fever); type: in vivo, rats; details: 6 hr following LPS injection
Protocol: Male Wistar rats (45-75 days old) were placed in a temperature controlled room held at 26° C., which is thermoneutral for the normal body temperature of rats, and were maintained in the room with free access to food and water for 24 hr prior to testing. On the morning of the study, rats were marked for identification and weighed. The temperature of each rat was determined by placing the animal in a regulatory cage designed to minimize stress and inserting a temperature probe (YSI probe #402) 3-5 cm into the animal's rectum. The temperature was recorded 15 sec after the reading stabilized. Measurements were repeated 1 hr later to establish a baseline temperature for each rat.
After the baseline temperatures were established, rats were injected IP with saline, IL-1β or LPS endotoxin. Rats then were injected IP with either saline (control) or various concentrations of EX-2, EX-3, or EX-4 (treated). The temperature of the rats was measured every hr for 6 hr and the inhibition by EX-2, EX-3, or EX-4 of the rise in temperature due to IL-1β or LPS was determined.
In addition, treatment with 50 or 150 μg/kg EX-2 inhibited LPS-induced fever by 45% or 52%, respectively, when measured 6 hr following LPS injection. Furthermore, treatment with 150 μg/kg EX-3 or EX-4 inhibited LPS-induced fever by 57% and 52%, respectively (Table II).

[5] = test system: TNF-α; assay: Reduction of LPS-induced TNF levels in mice (IP dosing); type: in vivo; details: 30 μg/mouse IP, one min before LPS 5 mg/kg IP; vs untreated control mice
Protocol: Balb/c female mice weighing approximately 20 g were placed into two groups, a control group and a treated group. Five mg/kg of LPS in 0.9% saline was administered by intraperitoneal (IP) injection into the control mice. Mice in the treated group were first injected IP with 30 μg EX-2 or 150 μg EX-3 in saline, then, one min after EX-2 or EX-3 was administered, the mice received LPS as described for the control group.
Blood samples were collected from the orbital sinus of treated and control mice at various times up to four hr after LPS was administered. The plasma was separated by centrifugation at 3000×g for 5 min, then diluted with four volumes of 1× phosphate buffer saline (pH 7.4) containing 1% bovine serum albumin. A 100 μl sample of serum was assayed by ELISA for TNF-α (Genzyme; Cambridge Mass.).
The mean (+/- SEM) TNF-α level in six mice from each group was determined and the percent reduction in TNF levels was calculated.

[6] = Reduction in body weight, Zucker fa/fa and Fa/+ rats; type: in vivo
Protocol: Adult Zucker fatty rats (fa/fa; 325-350 g) or non-obese Zucker rats (Fa/+; 250-275 g) each were divided into two groups. One group each of fa/fa and Fa/+ rats received intraperitoneal (ip) injections of 250 μg/kg EX-2, 3×/day, for 86 days, followed by 2×/day treatments for an additional 29 days. The other group of fa/fa and Fa/+rats received saline on the same schedule.
Administration of EX-2 caused a significant decrease in the weight gain of fa/fa and of Fa/+ rats (see FIG. 4). Specifically, saline treated fa/fa rats gained about 360 g during the […], whereas EX-2 treated fa/fa rats only gained 275 g, representing a 24% decrease in weight gain. […] In Fa/+ rats, the decreased weight gain was more modest, but again correlated to fat mass rather than lean muscle mass.
In other experiments, fa/fa rats received 0.5-10 mg/kg EX-2, 2×/day, for 14 days (1-20 mg/day). […] This weight loss correlated with […] consumption by the EX-2 treated rats as compared to the controls.

[7] = test system: glomerulonephritis; assay: Glomerulonephritis (nephrotoxic serum), albuminuria; type: in vivo, rats; details: 100 μg/kg per injection, 3 times per day
Protocol: Male Sprague-Dawley rats (weight 194-248 g) were immunized by subcutaneous injection of 1 mg normal rabbit IgG (Sigma Chemical Co.) in Freund's complete adjuvant (Sigma Chemical Co.). EX-2 was administered 3 times per day (100 μg/kg per injection) throughout the duration of the experiment. Seven days later, the rats were injected with 1.5 ml of nephrotoxic serum iv via dorsal penile vein. Urine, plasma, and serum were collected before injection of nephrotoxic serum at 4, 6, 24, 48, and 96 hr thereafter. […] Albuminuria was quantified by immunoelectrophoresis.

In the case of “Ac-Nle-Gln-His-(D)Phe-Arg-(D)Trp-Gly-NH2 [EX-2]”, the “% Reduction, Zucker NIDDM Diabetes, Body Weight (grams)” value [1] is reported as 32%, the “% Reduction, Zucker NIDDM Diabetes, Insulin (ng/ml)” value [1] is reported as 39% and the “% Reduction, Zucker NIDDM Diabetes, Urine Protein (mg/24 hr)” value [1] is reported as 87%. The “decrease in body weight” value [1] was “approximately 100 gram”, the “volunteers in whom plasma IL-10 levels increased” value ([2]; 200 ug/kg intravenous infusion) was “two of four” and the “increase of plasma IL-10” value ([2]; 200 ug/kg intravenous infusion) was 85%. The “volunteers in whom plasma IL-10 levels increased” value ([2]; 500 ug/kg intravenous infusion) was “four of four”, the “increase of plasma IL-10” value ([2]; 500 ug/kg intravenous infusion) was 230% and the “% Reduction, STZ Diabetes, Blood Glucose (mg/dl)” value [3] was 72%. For the same substance, the “Reduction in LPS-induced Fever” value ([4]; 50 μg/kg IP) was 45%, the “Reduction in LPS-induced Fever” value ([4]; 150 μg/kg IP) was 52% and the “Reduction in TNF levels” value [5] was 50%. The decreased weight gain ([6]; Fa/+ (non-obese) rats, 250 μg/kg ip) was “more modest”, the “epididymal fat pad weight” value ([6]; fa/fa rats, 250 μg/kg ip) was “decreased epididymal fat pad weight” and the body weight gained ([6]; fa/fa rats, 250 μg/kg ip 3×/day then 2×/day, 105 day treatment, saline about 360 g) was 275 g. For the same substance, the “decrease in weight gain” value ([6]; fa/fa rats, 250 μg/kg ip, vs saline treated) was 24%, the “decrease in body weight” value ([6]; fa/fa rats, 20 mg EX-2/day (10 mg/kg 2×/day), 14 days) was ~10% and the “rate of weight gain” value ([6]; fa/fa rats, 0.5-10 mg/kg 2×/day, 14 days, each group) was “decreased rate of weight gain”. The “% Reduction, Glomerulonephritis, Urine Albumin (mg/day)” value [7] was 62%.
